Holding throughout (format): physicochemical
A short description of data set [1]: Dynamic Vapor Sorption (DVS) analyses. Particulars: for Hygroscopicity by DVS: 25° C., RH 0-90-0%; for Weight lost during the pre-equilibration: DVS at 25° C., drying 0% RH for 120 min. The procedure:
Use the following parameters: • Equilibrium: dm/dt: 0.002%/min. (for min: 10 min and max: 180 min). • Drying: 0% RH for 120 min • RH (%) measurement step: 5% • RH (%) measurement step scope: 0-90-0% The criteria for hygroscopicity evaluation are listed in below: DVS analysis was performed on compound 1 Form A and compound 1 Form B to determine the degree of hygroscopicity. The results are provided in FIGS. 13A, FIG. 13B, FIG. 14A and FIG. 14B.

The nature of data set [2]: Suspension equilibration of single Form A and B under production conditions. The note with it: 40° C., stirred overnight. On the procedure: Objective: Determine the fates of single Form A and B when equilibrated in ethanol under anhydrous and aqueous conditions at 40° C.
Procedure: Form B and Form A were charged to separate vials. Ethanol/water (10/3 v/v, 13 vol) and ethanol (13 vol) were added, respectively. The mixtures were stirred at 20° C. or 40° C. overnight.

Data set [3] is described as follows: Thermal investigations (heating in DSC, residue analysed by XRPD or 1H NMR). The procedure:
A Mettler Toledo DSC 821 instrument was used for the thermal analysis operating with STARe™ software. The analysis was conducted in […], open aluminum pans, under nitrogen and sample sizes ranged from 1 to 10 mg. Typical analysis method was 20 to 250 at 10° C./minute.
Procedure: First experiment-A sample of compound 1 Form A containing 5.1% w/w water and 0.2% w/w ethanol (ca. 16 mg) was heated at a rate of +10° C./min from 20 to 160° C. to include the first endothermic event and exclude the second event (refer to FIG. 2).
Procedure: First event: A sample of compound 1 Form C (ca. 7 mg) was heated at a rate of +10° C./min from 20 to 120° C. to include the first endothermic event (refer to FIG. 9). The content of the spent crucible was expressed, the residue was analyzed by XRPD and the diffraction pattern was compared to the input diffraction pattern.
Third event: A sample of compound 1 Form C (ca. 5 mg) was heated at a rate of +10° C./min from 20 to 150° C. to include the multiple thermal events (refer to FIG. 9). The content of the spent crucible was expressed, the residue was analyzed by XRPD and the diffraction pattern was compared to the input diffraction pattern.
Procedure: First event: a sample of compound 1 Form E (ca. 8 mg) was heated at a rate of +10° C./min from 20 to 160° C. to include the first endothermic event and exclude the second event (refer to FIG. 11). The content of the spent crucible was expressed, the residue was analyzed by XRPD and the diffraction pattern was compared to the input diffraction pattern (see FIG. 12).

The nature of data set [4]: Anhydrous suspension equilibrations of Form A at 20° C. and 40° C. The note with it: stirred 7 to 10 days at 40° C. On the procedure:
Objective: Examine the effect of suspension equilibration of compound 1 under anhydrous conditions at 20° C. and 40° C. and determine the physical form of the products.
Procedure: Compound 1 (ca 50 mg, 1.0 wt) and the appropriate solvent (1000 μl, 20 vol) were charged to separate vessels and two parallel banks of experiments were stirred for 7 to 10 days at 20° C. and 40° C. After this time the products were cooled, isolated by filtration, washed with recycled maturation solvent, dried under reduced pressure at 20° C. and analyzed by XRPD for evidence of alternative crystalline forms.

Data set [5] can be described thus: Competitive suspension equilibrations of Form A + Form B composites. The note with it: stirred overnight. The procedure: Objective: Determine the fates of the Form A and Form B when equilibrated in ethanol under anhydrous and aqueous conditions at 20° C. and 40° C.
Procedure: Composites, prepared from equimolar amounts of Form A and Form B were charged to separate vials and ethanol (13 vol) or ethanol/water (10/3 v/v, 13 vol) were added. The two pairs of mixtures were stirred at 20° C. or 40° C. overnight.

Data set [6] can be described thus: Effect of elevated humidity, desiccator analysis at equilibrium humidity. Particulars: for Δwt. Percent: RH 75-80%; for Output Form designation (XRPD): after exposure to 75 to 80% RH at 18 to 23° C. for 72 h. On the procedure:
The effect of elevated humidity (75 to 80% RH at 18 to 23° C.) on the thermally dehydrated Form A residue from the preceding experiment, was examined via conventional desiccator analysis at equilibrium humidity. Compound 1 Form A (ca. 16 mg) was heated at a rate of +10° C./min from 20 to 160° C. to include the first endothermic event and exclude the second event (see FIG. 2). The content of the spent crucible was exposed to 75 to 80% RH (relative humidity) at 18 to 23° C. for 72 h. The corresponding weight changes were recorded and the internal conditions of the humidity enclosures were monitored. The absorbent increased in weight (refer to Table 4), but this was not accompanied by a significant change in the diffraction pattern, or dehydration event by DSC.

[7] abbreviates: heated at +10° C./min from 20 to 160° C.

“Also recorded” adds a separate entry of the source.

With `O=C(NO)c1cnc(N2C[C@@H]3[C@H](C2)[C@H]3NCc2ccc3cc(F)ccc3n2)nc1` [Form A, N-hydroxy 2-{6-[(6-fluoro-quinolin-2-ylmethyl)-amino]-3-aza-bicyclo[3.1.0]hex-3-yl}pyrimidine-5-carboxamide], the “Hygroscopicity by DVS” value in data set [1] is reported as “neither being hygroscopic; also recorded: not hygroscopic”. In addition, the “Weight lost during the pre-equilibration” value in data set [1] is listed as ~0.25 % w/w. Moreover, the “Output form (XRPD)” value in data set [2] (Ethanol) was “converted to Form B”; in data set [2] (Ethanol, listed as Form A (A0822-170-AD1)), “Form B”. The “Form of residue after heating (XRPD)” value in data set [3] (setting [7]) is “consistent with Form B”. Further, the “State after heating (1H NMR)” value in data set [3] (heated at +10° C./min from 20 to 230° C., cooled) was “extensive degradation”. Moreover, the “Large exothermic event (DSC, confirmed by 1H NMR)” value in data set [3] (post heating to 200° C.) was “consistent with degradation”. The “Output form @ 40° C. (XRPD)” value in data set [4] (1,4-dioxane (20 vol)), in data set [4] (2-Propanol (20 vol)), in data set [4] (Acetone (20 vol)), in data set [4] (Anisole (20 vol)), in data set [4] (Butanol (20 vol)) and in data set [4] (Chlorobenzene (20 vol)) was “A + B” each time. The “Output form @ 40° C. (XRPD)” value in data set [4] (Cumene (20 vol)), in data set [4] (Dichloromethane (20 vol)), in data set [4] (Ethyl acetate (20 vol)), in data set [4] (Ethyl ether (20 vol)), in data set [4] (Heptane (20 vol)) and in data set [4] (Isopropyl acetate (20 vol)) was “A + B” in each case. For the same molecule, the “Output form @ 40° C. (XRPD)” value in data set [4] (Methyl acetate (20 vol)), in data set [4] (Nitromethane (20 vol)), in data set [4] (Propionitrile (20 vol)), in data set [4] (Tetrahydrofuran (20 vol)), in data set [4] (Trifluorotoluene (20 vol)) and in data set [4] (tert-Butylmethyl ether (20 vol)) was “A + B” throughout.
Consider `O=C(NO)c1cnc(N2C[C@@H]3[C@H](C2)[C@H]3NCc2ccc3cc(F)ccc3n2)nc1` [Form B, N-hydroxy 2-{6-[(6-fluoro-quinolin-2-ylmethyl)-amino]-3-aza-bicyclo[3.1.0]hex-3-yl}pyrimidine-5-carboxamide], for which, in data set [1], the “Hygroscopicity by DVS” value is reported as “neither being hygroscopic” and the “Weight lost during the pre-equilibration” value was 0.03 % w/w. The “Form conversion at high water activity” value in data set [1] (40° C., high water activity, stated among the DVS observations) is reported as “promoted the conversion into Form A”. Besides, the “Output form (XRPD)” value in data set [2] (Ethanol/water (10/3 v/v)) was “mixture Form A and B”. Moreover, the “Output form (XRPD)” value in data set [2] (Ethanol/water (10/3 v/v), listed as Form B (A0822-170-AC1)) is on record as “A + B”.
Consider `O=C(NO)c1cnc(N2C[C@@H]3[C@H](C2)[C@H]3NCc2ccc3cc(F)ccc3n2)nc1` [Form A + Form B (1/1 w/w)], for which the “Output form (XRPD)” value in data set [5] (Ethanol, 20° C.) is “B (Major”; in data set [5] (Ethanol, 20° C., listed as composite Form A+B), “near complete conversion into Form B”; in data set [5] (Ethanol, 40° C.), “Form B”; in data set [5] (Ethanol, 40° C., listed as composite Form A+B), “complete turnover into single Form B”; in data set [5] (Ethanol/water (10/3 v/v), 20° C.) it was “Form A”; in data set [5] (Ethanol/water (10/3 v/v), 20° C., listed as composite Form A+B), “single Form A”. The “Output form (XRPD)” value in data set [5] (Ethanol/water (10/3 v/v), 40° C.) is given as “Form A”; in data set [5] (Ethanol/water (10/3 v/v), 40° C., listed as composite Form A+B), “single Form A”.
Take `O=C(NO)c1cnc(N2C[C@@H]3[C@H](C2)[C@H]3NCc2ccc3cc(F)ccc3n2)nc1` [Form E, N-hydroxy 2-{6-[(6-fluoro-quinolin-2-ylmethyl)-amino]-3-aza-bicyclo[3.1.0]hex-3-yl}pyrimidine-5-carboxamide]: the “Form of residue after heating (XRPD)” value in data set [3] (setting [7]) is recorded as “consistent with Form B”.
For `O=C(NO)c1cnc(N2C[C@@H]3[C@H](C2)[C@H]3NCc2ccc3cc(F)ccc3n2)nc1` [Form A after heating up to 160° C.], the “Δwt. Percent” value in data set [6] (0 h @ 18-23° C.) came to 0.0% w/w; in data set [6] (1 h @ 18-23° C.), 14.6% w/w; in data set [6] (24 hr @ 18-23° C.), 13.2% w/w; in data set [6] (72 hr @ 18-23° C.) it was 14.6% w/w. Besides, the “Output Form designation (XRPD)” value in data set [6] is “Isostructural”; in data set [6] (listed as Form A dehydrate), “did not revert back to Form A”.
Regarding `O=C(NO)c1cnc(N2C[C@@H]3[C@H](C2)[C@H]3NCc2ccc3cc(F)ccc3n2)nc1` [Form C, N-hydroxy 2-{6-[(6-fluoro-quinolin-2-ylmethyl)-amino]-3-aza-bicyclo[3.1.0]hex-3-yl}pyrimidine-5-carboxamide], the results for the “Form of residue after heating (XRPD)” value in data set [3] (heated at +10° C./min from 20 to 120° C.) and in data set [3] (heated at +10° C./min from 20 to 150° C.) were “consistent with an isomorphic desolvate/dehydrate” and “converted into isostructural Form B”, respectively.

Values taken from patent US11780822B2, “HDAC inhibitor solid state forms” (Viracta Subsidiary, Inc., priority 2019, dated 2023).
